Data: ChEMBL document CHEMBL1138260, “The first biologically active synthetic analogues of FK228, the depsipeptide histone deacetylase inhibitor” (J Med Chem, 2007)
Calls of active or inactive are those of the source. No cut-off for these calls is given here.

Experiments:
MCF7 [1] = test: Growth inhibition of MCF7 cells; format: functional, cell-based; details: Homo sapiens
Histone deacetylase = test: Inhibition of HDAC in HeLa nuclear extract in presence of DTT; format: protein assay, Homo sapiens
Histone deacetylase 1 = Histone deacetylase 1 (Homo sapiens, UniProt Q13547)
Description: Inhibition of HDAC1 in presence of DTT

[2] = target: T1, Protein deacetylase HDAC6 (Homo sapiens, UniProt Q9UBN7)
T1 sequence (Q9UBN7 whole entry): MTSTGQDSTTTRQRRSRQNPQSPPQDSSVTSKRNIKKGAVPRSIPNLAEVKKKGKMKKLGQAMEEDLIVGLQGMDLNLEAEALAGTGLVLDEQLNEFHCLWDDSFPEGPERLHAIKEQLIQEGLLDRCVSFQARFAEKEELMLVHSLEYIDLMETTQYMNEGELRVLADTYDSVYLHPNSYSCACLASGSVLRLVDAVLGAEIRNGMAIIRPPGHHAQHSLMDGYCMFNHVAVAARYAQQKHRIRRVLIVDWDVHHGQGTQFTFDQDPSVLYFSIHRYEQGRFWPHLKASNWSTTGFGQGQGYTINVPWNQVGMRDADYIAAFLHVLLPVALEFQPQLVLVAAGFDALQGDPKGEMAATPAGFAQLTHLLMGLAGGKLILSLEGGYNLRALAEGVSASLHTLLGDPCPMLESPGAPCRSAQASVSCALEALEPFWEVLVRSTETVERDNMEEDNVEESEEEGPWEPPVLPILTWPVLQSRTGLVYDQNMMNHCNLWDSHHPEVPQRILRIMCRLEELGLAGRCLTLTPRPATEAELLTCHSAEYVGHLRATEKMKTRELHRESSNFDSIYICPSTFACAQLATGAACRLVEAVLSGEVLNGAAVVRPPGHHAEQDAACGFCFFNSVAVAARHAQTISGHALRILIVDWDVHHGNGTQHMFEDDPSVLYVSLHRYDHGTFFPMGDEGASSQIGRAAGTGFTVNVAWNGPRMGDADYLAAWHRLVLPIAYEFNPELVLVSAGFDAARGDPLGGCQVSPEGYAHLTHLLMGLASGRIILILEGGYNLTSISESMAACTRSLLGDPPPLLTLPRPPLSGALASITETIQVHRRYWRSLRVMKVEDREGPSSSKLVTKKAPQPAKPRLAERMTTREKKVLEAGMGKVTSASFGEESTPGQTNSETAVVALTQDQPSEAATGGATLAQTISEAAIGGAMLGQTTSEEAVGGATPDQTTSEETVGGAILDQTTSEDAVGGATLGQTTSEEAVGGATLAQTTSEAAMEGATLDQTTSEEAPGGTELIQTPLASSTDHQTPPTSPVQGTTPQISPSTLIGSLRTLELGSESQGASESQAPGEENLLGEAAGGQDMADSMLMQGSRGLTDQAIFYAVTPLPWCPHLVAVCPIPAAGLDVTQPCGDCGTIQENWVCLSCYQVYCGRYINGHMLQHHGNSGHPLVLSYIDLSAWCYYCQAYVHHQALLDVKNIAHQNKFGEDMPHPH
Description: Inhibition of HDAC6 in presence of DTT

MCF7 [3] = test: Induction of p21cip1/waf1 promoter activity in MCF7 cells after 24 hrs; format: functional, cell-based; details: Homo sapiens

Chain of Histone deacetylase 1 (Q13547 whole entry): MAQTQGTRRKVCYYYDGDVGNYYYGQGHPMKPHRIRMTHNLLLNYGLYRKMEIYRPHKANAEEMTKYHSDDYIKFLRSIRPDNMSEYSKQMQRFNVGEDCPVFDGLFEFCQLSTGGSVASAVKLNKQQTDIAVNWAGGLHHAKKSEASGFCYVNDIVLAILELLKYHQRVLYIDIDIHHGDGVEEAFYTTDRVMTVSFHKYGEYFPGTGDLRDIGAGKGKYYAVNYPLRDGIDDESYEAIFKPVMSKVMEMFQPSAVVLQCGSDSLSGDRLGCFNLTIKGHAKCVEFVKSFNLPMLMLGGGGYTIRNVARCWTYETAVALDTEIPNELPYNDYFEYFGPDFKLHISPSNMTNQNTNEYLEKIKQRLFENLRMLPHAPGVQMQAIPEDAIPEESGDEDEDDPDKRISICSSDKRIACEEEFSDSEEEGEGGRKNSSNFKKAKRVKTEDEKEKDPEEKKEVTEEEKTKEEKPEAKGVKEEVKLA

| SMILES | IC50 (MCF7 [1]) | IC50 (Histone deacetylase) | IC50 (Histone deacetylase 1) | IC50 [2] | Activity (MCF7 [3]) |
| --- | --- | --- | --- | --- | --- |
| COC(=O)CNC(=O)[C@H](NC(=O)[C@H]1CSSCC/C=C/[C@@H](O)CC(=O)N[C@H](C)C(=O)N1)C(C)C | > 1000 nM | > 3200 nM |  |  |  |
| CC(C)[C@H]1NC(=O)C[C@H]2/C=C/CCSSC[C@@H](NC1=O)C(=O)N[C@H](C(C)C)C(=O)NCC(=O)O2 | 5.1 nM | 7.2 nM | 1.6 nM | 897 nM |  |
| CC(C)[C@H]1NC(=O)[C@H]2CSSCC/C=C/[C@H](CC(=O)N[C@H](C)C(=O)N2)OC(=O)CNC1=O | 37 nM | 15 nM | 1.6 nM | 881 nM | Active |
| CC(C)[C@H]1NC(=O)[C@@H](C)NC(=O)[C@@H](C)NC(=O)C[C@@H](/C=C/CCS)OC(=O)CNC1=O | > 1000 nM | 7 nM | 17.5 nM | 4920 nM |  |
| CC(=O)SCC/C=C/[C@@H]1CC(=O)N[C@H](C)C(=O)N[C@H](C)C(=O)N[C@H](C(C)C)C(=O)NCC(=O)O1 | 55 nM | 242 nM | > 100 nM | > 10000 nM |  |
